For series [1], the target named is T1, trypsin (Sus scrofa, UniProt P00761). Briefly: Apparent first order hydrolysis of extended SIS peptides (kobs, half-life, time to 75% and 95% hydrolyzed). It counts as in vitro ADME. Further details: purchased Promega V5111. Conditions: for Observed rate constant (slope of linear regression of Ln(A,t/A,0) over time): trypsin digestion time course, direct-MRM. The procedure:
By plotting the natural log as a function of time, or ln(At/A0)∼t, with At and A0 reported as the average peak area of hE from process triplicates at time t and time zero, respectively, a linear fit was calculated and kobs was reported as the slope of the fit (supplemental Table S9). […] Hydrolysis or disappearance of extended SIS peptides across both assays were categorized as fast, medium, slow, or pre-digested by Lys-C (not included in plot) by rate constants calculated using apparent first order kinetics. […] MRM, multiple reaction monitoring; SIS, stable isotope-labeled standard.

For series [2], the target named is T1, trypsin. Kind of series: hE/hT QC metric of proteolytic digestion (pass/marginal/fail). Further details: purchased Promega V5111. To be noted: QC panel SIS pairs, 0 to 21 h, three replicates, versus 16-h control digestion. From the text: We next compared the utility of the peak area of hT and the ratio of hE/hT as a QC metric to monitor trypsin digestion efficiency. Measurements from the triplicate control digestion samples were used to define the acceptability criteria for the QC metric. A QC pass was defined as an hT value or hE/hT ratio within 2 SD of the median. A marginal QC was defined as a value that was less than three SD but more than two SD greater than the median. Finally, a QC failure was defined as a value that was three SDs greater than the median. We then tested the ability of the QC metric, as defined by either the hE/hT ratio or hT alone, to detect a loss of assay sensitivity, defined as the endogenous peak area in the stressed condition as a fraction of the control. There were 23 targets (15 for the direct-MRM assay, 8 for the immuno-MRM assay) that had endogenous measurements above the LLOQ in the control digestions and also had extended peptides that were not categorized as ‘pre-digested’.
Finally, to ensure the hE/hT QC metric was not subject to day-to-day variability, we excluded any SIS pairs that failed QC across our replicate, 16-h control digestions (one in the stressor experiment and one in the time course experiment). […]

Setting [3] is: fit with R2 > 0.80, min 3-4 time points.
Where [4] appears, read: fit with R2 > 0.80, time points chosen to maximize R2 (minimum 4 points).

T1 sequence (P00761 9-231): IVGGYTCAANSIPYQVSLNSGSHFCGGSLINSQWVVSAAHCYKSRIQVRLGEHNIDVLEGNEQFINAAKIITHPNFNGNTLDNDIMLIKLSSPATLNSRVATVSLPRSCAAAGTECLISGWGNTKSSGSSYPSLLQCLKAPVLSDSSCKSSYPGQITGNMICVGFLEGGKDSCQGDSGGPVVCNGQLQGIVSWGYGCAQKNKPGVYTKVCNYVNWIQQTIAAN

With AATC[+57]SKYTELPYGREDVLKE, the “Half-life of extended SIS peptide” value on trypsin [1] (direct-MRM trypsin digestion time course, from observed rate constant) is 31.34 min. Turning to DEVIKEVQEFYKDTYNK [CD9_P21926_1751], the “Observed rate constant (slope of linear regression of Ln(A,t/A,0) over time)” value on trypsin [1] (setting [3]) is -0.0217 min⁻¹. Take “DSFRFGAPPHAGGGIGLERVTML [DARS_P14868_1752]”: at trypsin [1] (setting [3]), the “Observed rate constant (slope of linear regression of Ln(A,t/A,0) over time)” value was -0.0308 min⁻¹. On to DTKSDIIFFQRSVP [IL18_Q14116_1752], for which the “Observed rate constant (slope of linear regression of Ln(A,t/A,0) over time)” value on trypsin [1] (setting [3]) was -0.1677 min⁻¹. Regarding “EEMEKVLAGETLSVNDPPDVLDRQK [ILF3_Q12906_GO]”, on trypsin [1] (setting [3]), the “Observed rate constant (slope of linear regression of Ln(A,t/A,0) over time)” value is -0.0481 min⁻¹. Take GEEDNSLSVR[+10]: the “hE/hT QC result in trypsin digestion time course” value at trypsin [2] is “inconsistent QC results across the three replicates prior to the last time point”.

Turning to IERTFHVETPEEREEW [AKT1_P31749_1751], the “Observed rate constant (slope of linear regression of Ln(A,t/A,0) over time)” value on trypsin [1] (setting [4]) was -0.0388 min⁻¹. The same measure, in the same setting: the result for “IQVGRNIIHGSDSVESAEKEIGLWF [NME1_P15531_1753]” reads -0.0813 min⁻¹. The same measure, in the same setting: the result for KHRTGDEITYQC[+57]RNGF [CFH_P08603_1752] reads -0.0473 min⁻¹. Turning to YTELPYGR[+10], the “hE/hT QC result in trypsin digestion time course” value at trypsin [2] is “pass QC, then fail (or marginally pass) the QC at the latest time point”.

These data come from paper PMC10458721, “Monitoring Both Extended and Tryptic Forms of Stable Isotope-Labeled Standard Peptides Provides an Internal Quality Control of Proteolytic Digestion in Targeted Mass Spectrometry-Based Assays” (Molecular & Cellular Proteomics : MCP, 2023).
